Data published in patent US20220387365A1, “TUCARESOL DERIVATIVES AND USES THEREOF” (BeyondSpring Pharmaceuticals, Inc., priority 2019, published 2022).

Tested on: MC38 tumor cells
Experiment: Tumor volume in subcutaneous syngeneic colorectal cancer model MC38 (Example 10)
Assay type: in vivo,  mice
Method: MC38 tumor cells were maintained in vitro with DMEM medium supplemented with 10% fetal bovine serum at 37° C. in an atmosphere of 5% CO2 in air. The cells in exponential growth phase were harvested and quantitated by cell counter before tumor inoculation. Each mouse was inoculated subcutaneously in the right lower flank with 1×10^6 MC38 tumor cells in 0.1 ml of PBS for tumor development.
The randomization was started when the mean tumor size reached approximately 145 mm^3. 108 mice were enrolled in the study. All animals were randomly allocated to 9 study groups. Randomization by tumor volume was performed based on “Matched distribution” method/ “Stratified” method (StudyDirector™ software, version 3.1.399.19)/randomized block design.
Tumor volumes were measured three times a week after randomization in two dimensions using a caliper, and the volume was expressed in mm^3 using the formula: V=(L×W×W)/2, where V is tumor volume, L is tumor length (the longest tumor dimension) and W is tumor width (the longest tumor dimension perpendicular to L). Dosing as well as tumor and body weight measurements were conducted in a Laminar Flow Cabinet. The body weights and tumor volumes were measured by using StudyDirector™ software (version 3.1.399.19).
The treatment was initiated following randomization.
Tumor growth inhibition (TGI): TGI% is an indication of antitumor activity, and expressed as: TGI (%)=100×(1−T/C). T and C are the mean tumor volume (or weight) of the treated and control groups, respectively, on a given day. Statistical analysis of the difference in mean tumor volume among the groups was conducted using the method time to survival event/euthanasia. Individual mice were euthanized when tumor volume exceeded 3000mm^3. The study was ultimately terminated at Day 36.
To compare tumor volumes of different groups at a pre-specified day, Bartlett's test was used to check the assumption of homogeneity of variance across all groups. When the p-value of Bartlett's test was >=0.05, one-way ANOVA was runto test overall equality of means across all groups. If the p-value of the one-way ANOVA was <0.05, was performed post hoc testing by running Tukey's HSD (honest significant difference) tests for all pairwise comparisons, and Dunnett's tests for comparing each treatment group with the vehicle group. When the p-value of Bartlett's test was <0.05, was run Kruskal-Wallis test to test overall equality of medians among all groups. If the p-value the Kruskal-Wallis test was <0.05, was performed post hoc testing by running Conover's non-parametric test for all pairwise comparisons or for comparing each treatment group with the vehicle group, both with single-step p-value adjustment.
In addition, pairwise comparisons were performed without multiple comparison correction and reported nominal/uncorrected p-values directly from Welch's t-test or Mann-Whitney U test. Specifically, Bartlett's test was used to check the assumption of homogeneity of variance for a pair of groups. When the p-value of Bartlett's test was >0.05, Welch's t-test was run, otherwise Mann-Whitney U test was run, to obtain nominal p-values. Survival curves were compared between groups by logrank (Mantel-Cox) test.
All statistical analyses had been done in R-a language and environment for statistical computing and graphics (version 3.3.1). All tests were two-sided unless otherwise specified, and p-values of <0.05 were regarded as statistically significant.
Kaplan-Meier plot showing percent survival of mice treated with G1 to G9. A mouse whose tumor volume exceeded 3000 mm^3 was sacrificed and scored in the Kaplan-Meier plot. Tables 13.1 and 13.2 below describes the tumor growth inhibition with data collected over 24 days. Tables 14.1 and 14.2 below describes mean body weight.

O=Cc1c(OCc2ccc(C(=O)O)cc2)cccc1OC1O[C@H](CO)[C@@H](O)[C@H](O)[C@H]1O (stereo partly shown) [Compound C02]
antitumor efficacy of the combination (in words) (20 mg/kg C02 (Group 4) against anti-PD1 alone (Group 3), FIG. 5A): significantly increased the antitumor efficacy of anti-PDA1 administered alone
Mean Tumor Volumes (Day 1): 145 ± 5.46 mm^3
Mean Tumor Volumes (Day 4): 215.49 ± 15.14 mm^3
Mean Tumor Volumes (Day 8): 590.08 ± 59.54 mm^3
Mean Tumor Volumes (Day 10): 1048.2 ± 89.19 mm^3
Mean Tumor Volumes (Day 12): 1750.55 ± 154.11 mm^3
Mean Tumor Volumes (Day 15): 2847.19 ± 242.97 mm^3
